Measured values reported in US11827637B2, “Azaindole derivatives and their use as ERK kinase inhibitors” (AGV Discovery, priority 2022, dated 2023).

Key:
[1] = tested on: A375 cells (malignant melanoma); experiment: Cell line proliferation assay (MTT, A375); type: cell-based; details: Homo sapiens, A-375, 72 hours
Method: A cell line assay was used to determine the capacity of compounds to inhibit cell proliferation. A375 cells (malignant melanoma) were grown to near 80% confluence and seeded at 3000 cells per 100 μl per well in DMEM with 10% FBS in 96-well flat bottom plates. Cells were incubated for 24 hours at 37° C. under 5% CO2. 100 μl compound solutions were added to cells and incubated for 72 hours at 37° C. Total volume of media was 200 μl per well. Compounds were screened in 0.15% DMSO (final) using 10 titration points in duplicate. Negative control wells consisted of vehicle only (0.15% DMSO in 10% FBS DMEM). After 72 hours of compound treatment, SDS 1% (final) was added to positive control wells for 15 minutes at 37° C. Then, medium was discarded and replaced by 100 μl per well of a MTT solution (3-[4.5-dimethylthiazol-2-yl]-2.5-diphenyltetrazolium bromide) (Sigma, Cat #M5655) at 0.5 mg/ml in 10% FBS DMEM. Cells were incubated for 4 hours at 37° C. MTT reaction was stopped and homogenized by the addition of 100 μl per well of SDS 10% 0.01M HCl. After 16 hours at 37° C., absorbance was measured at 570 nm in a Bio-Tek plate reader (PowerWave HT). […] Analysis was performed using GraphPad Prism software.

ERK2 (MAPK1) = molecular target: T1, ERK2 (MAPK1) (Homo sapiens, UniProt P28482); experiment: ERK2 (MAPK1) enzymatic assay (Z′-Lyte); type: biochemical
T1 construct: purchased Life technologies
T1 sequence (P28482 whole entry): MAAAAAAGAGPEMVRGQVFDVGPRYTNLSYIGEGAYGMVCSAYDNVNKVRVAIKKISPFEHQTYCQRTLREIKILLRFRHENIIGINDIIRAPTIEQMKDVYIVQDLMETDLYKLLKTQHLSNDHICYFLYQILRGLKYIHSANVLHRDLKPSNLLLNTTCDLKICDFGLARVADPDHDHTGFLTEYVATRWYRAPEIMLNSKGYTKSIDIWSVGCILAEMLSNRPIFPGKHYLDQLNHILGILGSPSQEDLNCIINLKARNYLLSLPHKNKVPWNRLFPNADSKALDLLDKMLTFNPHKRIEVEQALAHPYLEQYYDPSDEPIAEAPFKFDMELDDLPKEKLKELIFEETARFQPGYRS
Method: To assess the capacity of compounds to inhibit ERK2 enzymatic activity, Z′-Lyte biochemical assay from Life technologies was used according to manufacturer's instructions. Briefly, black 384-well plates containing 100 nl of 100× compound solution in 100% DMSO, 2.4 μl kinase buffer, 5 μl 2×MAPK1 (ERK2)/Ser/Thr 03 mixture and 2.5 μl 4×ATP solution were used. Plates were shaken for 30 seconds and incubated for 60 minutes at room temperature. Then, 5 μl of a 1:1024 dilution of Development Reagent A was added. Plates were shaken for 30 seconds and incubated for 60 minutes at room temperature. A plate reader was used to read fluorescence. […] Kinase buffer consisted of 50 mM HEPES pH 7.5, 0.01% BRIJ-35, 10 mM MgCl2, 1 mM EGTA.

58 kinases = experiment: Kinase panel (Z′-Lyte, Adapta/Lanthascreen), 58 kinases; type: biochemical; details: for Kinase panel @500 nM hits > 50%: number of the 58 kinases inhibited more than 50% at 500 nM; for Kinase panel @500 nM hits > 80%: number of the 58 kinases inhibited more than 80% at 500 nM
Method: To assess the kinase selectivity of compounds, Z′-Lyte biochemical assay, and Adapta/Lanthascreen binding assays from Life technologies were used according to manufacturer's instructions. Pourcentages of inhibition at 500 nM of test compounds were performed towards 58 kinases: ABL1, ACVR1B (ALK4), AKT2 (PKB beta), AMPK (A1/132/G3), AURKA (Aurora A), AXL, BRAF, BTK, CAMK2B (CaMKII beta), CDK2/cyclin A, CHEK1 (CHK1), CLK1, CSNK1A1 (CK1 alpha 1), CSNK2A1 (CK2 alpha 1), DAPK3 (ZIPK), DYRK1A, EGFR (ErbB1), EPHB3, ERBB2 (HER2), FGFR2, FLT3, FRAP1 (mTOR), GSK3B (GSK3 beta), IGF1R, IKBKB (IKK beta), INSR, IRAK4, JAK2, KDR (VEGFR2), KIT, LCK, MAP2K1 (MEK1), MAPK10 (JNK3), MAPK11 (p38 beta), MAPKAPK2, MARK2, MET (cMet), NEK2, NTRK1 (TRKA), PAK2 (PAK65), PDGFRB (PDGFR beta), PDK1 Direct, PHKG2, PIK3CA/PIK3R1 (p110 alpha/p85 alpha), PIM1, PLK1, PRKACA (PKA), PRKCA (PKC alpha), PTK2 (FAK), RET, ROCK1, RPS6KA1 (RSK1), RPS6KB1 (p70S6K), SRC, STK3 (MST2), SYK, TEK (Tie2), TYRO3 (RSE).

IC50 [1] [nM] | SMILES | further results
77 | CN(C)C[C@H](c1cccc(Cl)c1)n1ccc(-c2c[nH]c3ncc(N4CCOCC4)c(F)c23)cc1=O [Compound no22 (S), (S)-1-(1-(3-chlorophenyl)-2-(dimethylamino)ethyl)-4-(4-fluoro-5-morpholino-1H-pyrrolo[2,3-b]pyridin-3-yl)pyridin-2(1H)-one] | IC50 (ERK2 (MAPK1)): 4 nM
15 | CN(C)C[C@H](c1cccc(C(F)(F)F)c1)n1ccc(-c2c[nH]c3ncc(N4CCOCC4)cc23)cc1=O [Compound no26 (S), (S)-1-(2-(dimethylamino)-1-(3-(trifluoromethyl)phenyl)ethyl)-4-(5-morpholino-1H-pyrrolo[2,3-b]pyridin-3-yl)pyridin-2(1H)-one] | –
– | CN(C)CC(c1cc(F)cc(Cl)c1)n1ccc(-c2c[nH]c3ncc(N4CCOCC4)cc23)cc1=O (racemic) [Compound no9 (racemate), 1-(1-(3-Chloro-5-fluorophenyl)-2-(dimethylamino)ethyl)-4-(5-morpholino-1H-pyrrolo[2,3-b]pyridin-3-yl)pyridin-2(1H)-one] | IC50 (ERK2 (MAPK1)): 7.7 nM
420 | CN(C[C@H](c1cccc(Cl)c1)n1ccc(-c2c[nH]c3ncc(N4CCOCC4)cc23)cc1=O)C1CC1 [Compound no14 (S), (S)-1-(1-(3-chlorophenyl)-2-(cyclopropyl(methyl)amino)ethyl)-4-(5-morpholino-1H-pyrrolo[2,3-b]pyridin-3-yl)pyridin-2(1H)-one] | –
199 | CN(C)C[C@H](c1cccc(Cl)c1)n1ccc(-c2c[nH]c3ncc(N4CCOC(C(F)(F)F)C4)cc23)cc1=O (stereo partly drawn) [Compound no21 (S), 1-((S)-1-(3-chlorophenyl)-2-(dimethylamino)ethyl)-4-(5-(2-(trifluoromethyl)morpholino)-1H-pyrrolo[2,3-b]pyridin-3-yl)pyridin-2(1H)-one] | –
303 | CN(C)C[C@H](c1cccc(Cl)c1)n1cc(F)c(-c2c[nH]c3ncc(N4CCOCC4)cc23)cc1=O [Compound no19 (S), (S)-1-(1-(3-chlorophenyl)-2-(dimethylamino)ethyl)-5-fluoro-4-(5-morpholino-1H-pyrrolo[2,3-b]pyridin-3-yl)pyridin-2(1H)-one] | –
– | CNC[C@H](c1ccc(Cl)c(Cl)c1)n1ccc(-c2c[nH]c3ncc(N4CCOCC4)cc23)cc1=O [Comparative compound B (S), (S)-1-(1-(3,4-dichlorophenyl)-2-(methylamino)ethyl)-4-(5-morpholino-1H-pyrrolo[2,3-b]pyridin-3-yl)pyridin-2(1H)-one, reference compound] | Kinase panel @500 nM hits > 50% (58 kinases): 20/58; Kinase panel @500 nM hits > 80% (58 kinases): 10/58
371 | CN(C)C[C@H](c1cc(F)cc(F)c1)n1ccc(-c2c[nH]c3ncc(N4CCOCC4)cc23)cc1=O [Compound no18 (S), (S)-1-(1-(3,5-difluorophenyl)-2-(dimethylamino)ethyl)-4-(5-morpholino-1H-pyrrolo[2,3-b]pyridin-3-yl)pyridin-2(1H)-one] | –
– | NC[C@H](c1cccc(Cl)c1)n1ccc(-c2c[nH]c3ncc(N4CCOCC4)cc23)cc1=O [Comparative compound A (S), (S)-1-(2-amino-1-(3-chlorophenyl)ethyl)-4-(5-morpholino-1H-pyrrolo[2,3-b]pyridin-3-yl)pyridin-2(1H)-one, reference compound] | Kinase panel @500 nM hits > 50% (58 kinases): 26/58; Kinase panel @500 nM hits > 80% (58 kinases): 15/58
188 | CN(C)C[C@H](c1cc(F)cc(Cl)c1)n1ccc(-c2c[nH]c3ncc(N4CCOCC4)cc23)cc1=O [Compound no9 (S), (S)-1-(1-(3-chloro-5-fluorophenyl)-2-(dimethylamino)ethyl)-4-(5-morpholino-1H-pyrrolo[2,3-b]pyridin-3-yl)pyridin-2(1H)-one] | –
825 | Cc1cc(-c2c[nH]c3ncc(N4CCOCC4)cc23)cc(=O)n1[C@H](CN(C)C)c1cccc(Cl)c1 [Compound no20 (S), (S)-1-(1-(3-chlorophenyl)-2-(dimethylamino)ethyl)-6-methyl-4-(5-morpholino-1H-pyrrolo[2,3-b]pyridin-3-yl)pyridin-2(1H)-one] | –
162 | CN(CC1CC1)C[C@H](c1cccc(Cl)c1)n1ccc(-c2c[nH]c3ncc(N4CCOCC4)cc23)cc1=O [Compound no16 (S), (S)-1-(1-(3-chlorophenyl)-2-((cyclopropylmethyl)(methyl)amino)ethyl)-4-(5-morpholino-1H-pyrrolo[2,3-b]pyridin-3-yl)pyridin-2(1H)-one] | –
116 | CN(C)C[C@H](c1cc(F)cc(I)c1)n1ccc(-c2c[nH]c3ncc(N4CCOCC4)cc23)cc1=O [Compound no10 (S), (S)-1-(2-(dimethylamino)-1-(3-fluoro-5-iodophenyl)ethyl)-4-(5-morpholino-1H-pyrrolo[2,3-b]pyridin-3-yl)pyridin-2(1H)-one] | –
7 | CN(CC#N)C[C@H](c1cccc(Cl)c1)n1ccc(-c2c[nH]c3ncc(N4CCOCC4)cc23)cc1=O [Compound no12 (S), (S)-2-((2-(3-chlorophenyl)-2-(4-(5-morpholino-1H-pyrrolo[2,3-b]pyridin-3-yl)-2-oxopyridin-1(2H)-yl)ethyl)(methyl)amino)acetonitrile] | –
8 | COCc1cc(Cl)cc([C@@H](CN(C)C)n2ccc(-c3c[nH]c4ncc(N5CCOCC5)cc34)cc2=O)c1 [Compound no23 (S), (S)-1-(1-(3-chloro-5-(methoxymethyl)phenyl)-2-(dimethylamino)ethyl)-4-(5-morpholino-1H-pyrrolo[2,3-b]pyridin-3-yl)pyridin-2(1H)-one] | IC50 (ERK2 (MAPK1)): 4.5 nM
156 | CN(C)C[C@H](c1cccc(C#N)c1)n1ccc(-c2c[nH]c3ncc(N4CCOCC4)cc23)cc1=O [Compound no25 (S), (S)-3-(2-(dimethylamino)-1-(4-(5-morpholino-1H-pyrrolo[2,3-b]pyridin-3-yl)-2-oxopyridin-1(2H)-yl)ethyl)benzonitrile] | –
– | CN(C)CC(c1cc(F)cc(I)c1)n1ccc(-c2c[nH]c3ncc(N4CCOCC4)cc23)cc1=O (racemic) [Compound no10 (racemate), 1-(2-(dimethylamino)-1-(3-fluoro-5-iodophenyl)ethyl)-4-(5-morpholino-1H-pyrrolo[2,3-b]pyridin-3-yl)pyridin-2(1H)-one] | IC50 (ERK2 (MAPK1)): 5.1 nM
262 | COCCN(C)C[C@H](c1cccc(Cl)c1)n1ccc(-c2c[nH]c3ncc(N4CCOCC4)cc23)cc1=O [Compound no13 (S), (S)-1-(1-(3-chlorophenyl)-2-((2-methoxyethyl)(methyl)amino)ethyl)-4-(5-morpholino-1H-pyrrolo[2,3-b]pyridin-3-yl)pyridin-2(1H)-one] | –
229 | CN(CC(F)F)C[C@H](c1cccc(Cl)c1)n1ccc(-c2c[nH]c3ncc(N4CCOCC4)cc23)cc1=O [Compound no11 (S), (S)-1-(1-(3-chlorophenyl)-2-((2,2-difluoroethyl)(methyl)amino)ethyl)-4-(5-morpholino-1H-pyrrolo[2,3-b]pyridin-3-yl)pyridin-2(1H)-one] | –

SMILES | IC50 [1] [nM] | further results
O=c1cc(-c2c[nH]c3ncc(N4CCOCC4)cc23)ccn1[C@H](CN1CC1)c1cccc(Cl)c1 [Compound no24 (S), (S)-1-(2-(aziridin-1-yl)-1-(3-chlorophenyl)ethyl)-4-(5-morpholino-1H-pyrrolo[2,3-b]pyridin-3-yl)pyridin-2(1H)-one] | 96 | –
